Literature values, collected in patent publication US9464021B2, “Method of preparation of stereospecific quinone derivatives” (priority 2013, dated 2016).

Tests used:
[1] = liver fractions
[2] = in vivo

For `CC1=C(C/C=C(/C)CCC[C@H](C)CCC[C@H](C)CCCC(C)C)C(=O)c2ccccc2C1=O` (relative stereo) [cis-phylloquinone], the hepatic subcellular distribution [1] is given as “retained preferentially by mitochondria” and the “biological activity as vitamin K” value [2] is given as “little or no biological activity as vitamin K”.
In the case of `CC1=C(C/C=C(\C)CCC[C@H](C)CCC[C@H](C)CCCC(C)C)C(=O)c2ccccc2C1=O` (single isomer, unassigned) [trans isomer, phylloquinone], the hepatic subcellular distribution [1] is listed as “associated principally with the microsomal fraction and subfractions” and the “biological activity as vitamin K” value [2] is listed as “full potency of the vitamin”.
